Series [1] concerns the target ATR/ATPIP (ATR-interacting protein) kinase (Homo sapiens, UniProt Q13535). As to the kind of experiment: Inhibitory activity against ATR kinase (p53 substrate, HTRF). The series is classed as biochemical. Here is the method:
(§1) ATR/ATPIP (ATR-interacting protein) kinase solution (concentration: 50 ng/μL) was added to assay wells at 6 μL/well, and different compounds dissolved in DMSO were added to the assay wells separately using a nanoliter pipettor, such that the final concentrations of the compounds were 10000 nM to 2.44 nM. In this experiment, the wells were set in duplicate, and a control well was set. After incubation of the above system for 30 min at room temperature, ATP (5 μM) was mixed with p53 substrate (50 nM) at a ratio of 1:1, and the mixture was added at 4 μL/well. The resulting mixture was left to react at room temperature for 2 h, and then 5 μL of EDTA was added to terminate the reaction, followed by addition of 5 μL of detection antibodies, Mab Anti-phospho p53 and Mab Anti GST-d2 (manufacturer: perkinelmer). The mixture was incubated at room temperature for 1 h. The plate was read using a PerkinElmer Envision multifunctional microplate reader (excitation: 320 nm, emission: 620 nm/665 nm), and IC50 was calculated by four-parameter fitting.
(In general: Time-resolved FRET reads energy transfer from a long-lived donor to a nearby acceptor.)

The target of series [2] is ATM kinase (Homo sapiens, UniProt Q13315). As to the kind of experiment: Inhibitory activity against ATM kinase (p53 substrate, HTRF). Format: biochemical. Here is the method:
as §1, with “ATM kinase” for “ATR/ATPIP (ATR-interacting protein) kinase”, “(concentration: 25” for “(concentration: 50”, “ATP (100” for “ATP (5”

For series [3], the system named is CHK2 phosphorylation of NCI-H2228 cells. As to the kind of experiment: Inhibitory activity against CHK2 phosphorylation of NCI-H2228 cells (p-CHK2 Thr68 AlphaLISA). Format: cell-based. Conditions: Homo sapiens. Here is the method:
NCI-H2228 cells in a good growth state were collected, added to a centrifuge tube, adjusted to a cell density of 1.25×10^6 cells/mL, and seeded in a 384-well plate (8 μL/well). The cells were equilibrated in a cell incubator for 1.5 h, and then compounds were added using a nanoliter pipettor, such that the final concentrations of the compounds were 200 nM to 0.049 nM. In this experiment, the wells were set in duplicate, and a control well was set. After the mixture was further cultured for 1 h in the cell incubator, an assay was performed using a p-CHK2 (Thr68) assay kit (manufacturer: perkinelmer) and the Envision microplate reader AlphaLISA program. A four-parameter analysis was performed, a dose-response curve was fit, and IC50 was calculated.
On the technique in general: Alpha assays give light when donor and acceptor beads are brought close together.

The nature of series [4]: In vivo pharmacokinetics (Table 4). Conditions: plasma; for MRT last: read-out: MRT(0-t).
Series [5] has as its target DNA-PK (DNA-dependent protein kinase) (Homo sapiens, UniProt P78527). As to the kind of experiment: Inhibitory activity against DNA-PK (p53 substrate, HTRF). Format: biochemical. On the procedure: as §1, with “DNA-PK kinase” for “ATR/ATPIP (ATR-interacting protein) kinase”, “(concentration: 0.15” for “(concentration: 50”, “ATP (100” for “ATP (5”

By IC50 is commonly meant the concentration at which inhibition is half-maximal. A low value points to greater potency. By AUC(0-inf) is commonly meant total exposure, with the tail of the curve extrapolated. As usually defined, the AUC(0-t) is exposure summed from dosing to a finite time, without extrapolation to infinity. A lower AUC(0-t) goes with less exposure. By half-life is commonly meant the time in which the quantity being followed falls by half. Read a high half-life as slow loss. As a reminder, the Cmax is the maximum level reached in the sampled fluid or tissue. By Tmax is commonly meant the time at which the peak concentration occurs.

Like-named read-outs stand apart in the source and are kept apart here.

Sequence of ATM kinase (Q13315 whole entry): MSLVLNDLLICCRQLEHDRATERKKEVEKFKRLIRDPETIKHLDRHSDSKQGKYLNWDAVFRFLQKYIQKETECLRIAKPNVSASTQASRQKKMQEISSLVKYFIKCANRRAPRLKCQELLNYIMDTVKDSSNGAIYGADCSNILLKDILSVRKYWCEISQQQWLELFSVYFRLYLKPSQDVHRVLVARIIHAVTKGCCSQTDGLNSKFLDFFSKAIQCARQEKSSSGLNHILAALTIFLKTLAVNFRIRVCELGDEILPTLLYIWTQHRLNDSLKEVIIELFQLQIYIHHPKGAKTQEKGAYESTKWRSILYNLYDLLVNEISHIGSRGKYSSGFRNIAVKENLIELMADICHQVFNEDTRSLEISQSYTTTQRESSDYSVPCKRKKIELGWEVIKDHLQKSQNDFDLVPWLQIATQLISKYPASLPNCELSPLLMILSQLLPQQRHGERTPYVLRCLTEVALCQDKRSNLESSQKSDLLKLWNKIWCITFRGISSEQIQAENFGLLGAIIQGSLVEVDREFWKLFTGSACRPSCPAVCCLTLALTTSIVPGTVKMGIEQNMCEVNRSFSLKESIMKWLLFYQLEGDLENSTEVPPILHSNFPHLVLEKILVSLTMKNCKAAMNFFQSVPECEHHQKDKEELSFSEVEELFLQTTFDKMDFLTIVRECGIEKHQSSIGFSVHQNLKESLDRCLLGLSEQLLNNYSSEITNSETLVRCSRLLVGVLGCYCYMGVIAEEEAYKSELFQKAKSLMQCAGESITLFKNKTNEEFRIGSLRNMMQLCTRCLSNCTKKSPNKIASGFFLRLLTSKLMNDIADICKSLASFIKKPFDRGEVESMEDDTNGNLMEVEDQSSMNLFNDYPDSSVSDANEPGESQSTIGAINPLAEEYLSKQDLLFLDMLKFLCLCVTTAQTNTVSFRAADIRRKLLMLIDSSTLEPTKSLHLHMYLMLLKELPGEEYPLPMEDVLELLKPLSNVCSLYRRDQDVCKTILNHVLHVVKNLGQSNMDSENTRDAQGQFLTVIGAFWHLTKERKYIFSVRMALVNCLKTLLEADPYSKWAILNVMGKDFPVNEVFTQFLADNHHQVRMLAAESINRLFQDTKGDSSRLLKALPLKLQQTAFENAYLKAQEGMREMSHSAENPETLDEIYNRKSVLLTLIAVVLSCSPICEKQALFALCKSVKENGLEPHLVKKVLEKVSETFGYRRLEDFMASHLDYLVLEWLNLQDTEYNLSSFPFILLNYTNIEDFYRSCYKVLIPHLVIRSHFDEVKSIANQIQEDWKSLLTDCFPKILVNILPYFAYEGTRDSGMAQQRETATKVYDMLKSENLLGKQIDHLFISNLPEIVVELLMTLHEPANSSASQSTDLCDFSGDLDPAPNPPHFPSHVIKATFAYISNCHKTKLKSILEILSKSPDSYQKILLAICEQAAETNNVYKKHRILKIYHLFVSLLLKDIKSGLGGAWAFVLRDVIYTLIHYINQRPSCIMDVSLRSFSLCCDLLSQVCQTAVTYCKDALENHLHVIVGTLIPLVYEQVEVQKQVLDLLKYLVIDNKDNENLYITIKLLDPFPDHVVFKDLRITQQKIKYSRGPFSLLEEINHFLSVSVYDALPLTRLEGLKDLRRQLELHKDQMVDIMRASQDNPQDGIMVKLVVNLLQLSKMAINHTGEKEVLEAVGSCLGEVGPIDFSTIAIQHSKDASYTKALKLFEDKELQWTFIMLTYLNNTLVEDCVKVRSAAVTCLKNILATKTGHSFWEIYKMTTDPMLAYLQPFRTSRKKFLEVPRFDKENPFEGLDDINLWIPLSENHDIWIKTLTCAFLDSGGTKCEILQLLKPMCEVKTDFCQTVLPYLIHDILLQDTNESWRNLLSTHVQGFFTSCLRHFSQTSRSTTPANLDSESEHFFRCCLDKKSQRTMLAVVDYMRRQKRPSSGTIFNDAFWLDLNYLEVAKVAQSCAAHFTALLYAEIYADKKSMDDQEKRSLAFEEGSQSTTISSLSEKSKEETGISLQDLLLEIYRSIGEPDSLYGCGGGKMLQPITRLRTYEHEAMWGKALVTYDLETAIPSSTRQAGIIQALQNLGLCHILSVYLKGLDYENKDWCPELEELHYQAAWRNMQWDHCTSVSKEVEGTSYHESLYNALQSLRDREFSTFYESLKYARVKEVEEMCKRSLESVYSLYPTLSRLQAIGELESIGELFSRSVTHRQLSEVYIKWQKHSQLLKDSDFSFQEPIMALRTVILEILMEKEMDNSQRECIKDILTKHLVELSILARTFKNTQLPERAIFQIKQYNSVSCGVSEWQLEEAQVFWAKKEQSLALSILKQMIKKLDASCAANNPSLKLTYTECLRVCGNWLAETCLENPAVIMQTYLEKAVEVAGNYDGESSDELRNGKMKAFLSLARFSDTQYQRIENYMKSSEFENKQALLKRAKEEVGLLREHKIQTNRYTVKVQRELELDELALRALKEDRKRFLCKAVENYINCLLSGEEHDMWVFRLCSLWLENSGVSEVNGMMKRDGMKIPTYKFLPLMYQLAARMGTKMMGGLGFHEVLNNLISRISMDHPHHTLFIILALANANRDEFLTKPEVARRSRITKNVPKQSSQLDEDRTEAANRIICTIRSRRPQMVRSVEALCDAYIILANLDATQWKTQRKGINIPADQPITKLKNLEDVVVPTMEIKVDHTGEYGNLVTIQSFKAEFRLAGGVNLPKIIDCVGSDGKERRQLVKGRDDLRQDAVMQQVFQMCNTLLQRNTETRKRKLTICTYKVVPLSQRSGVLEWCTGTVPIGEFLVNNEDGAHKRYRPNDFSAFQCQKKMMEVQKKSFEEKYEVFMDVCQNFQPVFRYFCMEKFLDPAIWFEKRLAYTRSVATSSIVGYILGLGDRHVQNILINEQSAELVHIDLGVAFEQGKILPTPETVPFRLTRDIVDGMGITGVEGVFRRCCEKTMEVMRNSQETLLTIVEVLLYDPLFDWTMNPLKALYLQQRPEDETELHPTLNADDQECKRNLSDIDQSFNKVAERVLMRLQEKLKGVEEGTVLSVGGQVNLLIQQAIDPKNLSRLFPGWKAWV

For `Nn1c(=O)n(C2CC2)c2c3cc(-c4ccc(OCCCN5CCCC5)nc4)c(F)cc3ncc21` [Example 19], in series [1], the half-inhibitory concentration (IC50) is more than 1000 nM. This molecule also yielded a half-maximal inhibitory concentration (IC50) in series [2] of less than 50 nM. In series [3], this molecule came in with an IC50 of less than 50 nM. In series [4] (iv, 1 mg/kg), the area under the curve AUC(0-inf) was determined as 474 ng·h/mL, the area under the curve AUC(0-t) amounted to 451 ng·h/mL, the half-life is 2.05 h and the MRT last was 1.84 h. Also, the Vd in series [4] (iv, 1 mg/kg, read-out: Vz) was 4.82 L/kg. In addition, in series [4] (po, IG, 10 mg/kg), the AUC(0-inf) amounted to 4000 ng·h/mL, the exposure AUC(0-t) stood at 3980 ng·h/mL, the peak concentration (Cmax) was determined as 485 ng/mL and the time to peak (Tmax) was 4 h. Further, in series [4] (po, IG, 10 mg/kg), the half-life was 3.07 h and the MRT last came to 4.72 h. Further, the half-maximal inhibitory concentration (IC50) in series [5] was more than 1000 nM.

The values are drawn from US20260250277A1, “HYDRAZINO GROUP-CONTAINING COMPOUND” (CHIA TAI TIANQING PHARMACEUTICAL GROUP CO., LTD., priority 2022, published 2026).
